According to patent US5874426A, “Cyclic amine derivatives of substituted quinoxaline 2,3-diones as glutamate receptor antagonists” (Warner-Lambert Company, priority 1995, dated 1999):

How the values were obtained:
CF-1 strain mice = assay: maximal electroshock assay in CF-1 strain mice, corneal electrodes; assay type: in vivo; settings: ten mice; IV; 30 seconds; 0.5 min
From the text: The graph is the […] of mice protected versus the time in minutes.

AMPA receptors = assay: AMPA receptor binding affinity (Honoré et al.); settings: Table 1
[1] = biological target: kainate site (non-NMDA receptor); assay: kainate site (non-NMDA receptor) binding affinity (London and Coyle); settings: Table 1

Row | Molecule | ED50 maximal electroshock dose-response (CF-1 strain mice) [mg/kg] | IC50 (AMPA receptors) [nM] | IC50 KA [1] [nM]
1 | 1,4,7,8,9,10-hexahydro-7-methyl-6-nitro-pyrido[3,4-f]quinoxaline-2,3-dione [PNQX] | 0.5 | – | –
2 | Cc1c([N+](=O)[O-])cc2[nH]c(=O)c(=O)[nH]c2c1CN1C(C)CCC1C (stereo not drawn) [5-(2,5-Dimethyl-pyrrolidin-1-ylmethyl)-6-methyl-7-nitro-1,4-dihydroquinoxaline-2,3-dione] | – | 740 | 2840
3 | Cc1c([N+](=O)[O-])cc2[nH]c(=O)c(=O)[nH]c2c1CN1CCC2(CCCCC2)CC1 [5-(3-Azaspiro [5.5]undec-3-ylmethyl)-6-methyl-7-nitro-1,4-dihydroquinoxaline-2,3-dione] | – | 486 | 6540
4 | Cc1c([N+](=O)[O-])cc2[nH]c(=O)c(=O)[nH]c2c1CN1CCCCCC1 [5-Azepan-1-ylmethyl-6-methyl-7-nitro-1,4-dihydroqinoxaline-2,3-dione] | – | 899 | 3695
5 | Cc1c([N+](=O)[O-])cc2[nH]c(=O)c(=O)[nH]c2c1CN1CCCCC1C (stereo not drawn) [6-Methyl-5-(2-methyl-piperidin-1-ylmethyl)-7-nitro-1,4-dihydroquinoxaline-2,3-dione] | – | 490 | 8280
6 | Cc1c([N+](=O)[O-])cc2[nH]c(=O)c(=O)[nH]c2c1CN1CCCC1C (stereo not drawn) [6-Methyl-5-(2-methyl-pyrrolidin-1-ylmethyl)-7-nitro-1,4-dihydroquinoxaline-2,3-dione] | – | 370 | 6110
7 | Cc1c([N+](=O)[O-])cc2[nH]c(=O)c(=O)[nH]c2c1CN1CCN(C)CC1 [6-Methyl-5-(4-methyl-piperazin-1-ylmethyl)-7-nitro-1,4-dihydroquinoxaline-2,3-dione] | – | 2470 | 13200
8 | Cc1c([N+](=O)[O-])cc2[nH]c(=O)c(=O)[nH]c2c1CN1CCC(C)CC1 [6-Methyl-5-(4-methyl-piperidin-1-ylmethyl)-7-nitro-1,4-dihydroquinoxaline-2,3-dione] | – | 420 | 9950
9 | Cc1c([N+](=O)[O-])cc2[nH]c(=O)c(=O)[nH]c2c1CN1CCOCC1 [6-Methyl-5-morpholin-4-ylmethyl-7-nitro-1,4-dihydroquinoxaline-2,3-dione] | – | 572 | 9083
10 | Cc1c([N+](=O)[O-])cc2[nH]c(=O)c(=O)[nH]c2c1CN1CCCC1 [6-Methyl-5-pyrrolidin-1-ylmethyl-7-nitro-1,4-dihydroquinoxaline-2,3-dione] | – | 220 | 4520
11 | Cc1c([N+](=O)[O-])cc2[nH]c(=O)c(=O)[nH]c2c1CN1CCCCC1 [6-Methyl-7-nitro-5-piperidin-1-ylmethyl-1,4-dihydroquinoxaline-2,3-dione] | – | 290 | 4110
